{"source": "patent US20200085812A1", "about": "“HEAT SHOCK PROTEIN INDUCERS AND FRONTOTEMPORAL DISORDERS” (Orphazyme A/S, priority 2017, published 2020)", "key": {"mutant VCP (mVCP) mice [1]": {"test_system": "mutant VCP (mVCP) mice", "assay": "Immunohistochemistry of brain and spinal cord for pathology markers (TDP-43, ubiquitin, p-tau, p62, LC3, myelin, stress granule markers)", "type": "in vivo, mouse", "conditions": "120 mg/kg daily orally, 4 to 14 months", "protocol": "(§1) Arimoclomol treatment: Male mutant VCP (mVCP) mice were treated with Arimoclomol (120 mg/kg daily; orally in drinking water), from the start of symptom onset at 4 months, until close to end-stage at 14 months. Transgenic mice over-expressing wild-type human VCP (wt-VCP) were used as controls, and 10 male mice per group were studied; a sample size sufficient to test for statistical significance at P<0.05 in a single sex group.\n(§2) Brain and spinal cords were harvested from mice in all experimental groups following transcardial perfusion with saline followed by 4% paraformaldehyde (PFA). Brain and spinal cords were then kept in 4% PFA for 12 hours before being transferred to a 30% sucrose solution. Cross-sections of brain and spinal cords were cut at 20 μm and blocked in 10% Normal Goat serum with 0.1% Triton X100 in PBS before primary antibodies were added for 1 hour at room temperature. Primary antibodies: Rabbit anti-TDP-43 [1:500], Rabbit anti-ubiquitin [1:500], mouse anti-phospho tau (AT8) [1:100], Rabbit/mouse anti-Beta-3 tubulin [1:100], mouse anti-HSP70 [1:100], Mouse anti-p62 [1:200], Rabbit anti-LC3 [1:500]Rabbit anti-Iba1 [1:100], anti neurofilament 2H3 [1:20], Synaptic vesicle protein [1:20], Fluoromyelin Red myelin stain [1:300]. Fluorescently labelled or biotinylated secondary antibodies were used 1:1000 for 2 hours at room temperature. 4′6-Diamidino-2-Phenylindole, Dihydrochloride (DAPI) was used to counterstain for nuclei in all fluorescent images. Imaging of tissue was using a standard Leica light/fluorescent microscope or a LSM 780 confocal microscope.\n(§3) Fluorescent images were visualised under a Leica fluorescent microscope and analysed using Leica Application Suite software (Leica Microsystems, Germany)."}, "[2]": {"test_system": "iPSC-derived motor neurons from mVCP patients", "assay": "TDP-43 immunostaining of mVCP patient iPSC-derived motor neurons", "type": "cell-based, human", "conditions": "10 μM for 24 hours, FIG. 12 A", "protocol": "(§4) iPSCs were maintained on Geltrex (Life Technologies) with Essential 8 Medium media (Life Technologies), and passaged using EDTA (Life Technologies, 0.5 mM). All cell cultures were maintained at 37° C. and 5% carbon dioxide. Motor neuron (MN) differentiation was carried out using a previously published protocol (Hall et al., 2017). Briefly, iPSCs were first differentiated to neuroepithelium by plating to 100% confluency in chemically defined medium consisting of DMEM/F12 Glutamax, Neurobasal, LGlutamine, N2 supplement, non-essential amino acids, B27 supplement, […] (all from Life Technologies) and insulin (Sigma). Treatment with small molecules from day 0-7 was as follows: 1 μM Dorsomorphin (Sigma), 2 μM SB431542 (Sigma), and 3 μM CHIR99021 (Sigma). At day 8, the neuroepithelial layer was enzymatically dissociated using dispase (GIBCO, 1 mg/ml), plated onto Geltrex coated plates and next patterned for 7 days with 0.5 μM retinoic acid and 1 μM Purmorphamine. At day 14 spinal cord MN precursors were treated with 0.1 μM Purmorphamine for a further 4 days before being terminally differentiated in 0.1 μM Compound E (Sigma) to promote cell cycle exit. Cells were treated with 10 μM Arimoclomol for 24 hours following terminal differentiation and fixed in PFA for immuno-labelling."}, "HSP70 [3]": {"test_system": "HSP70", "conditions": "treated versus untreated mVCP mice; cited from earlier work"}, "HSP70 [4]": {"test_system": "HSP70", "assay": "HSP70 immunostaining of mVCP patient iPSC-derived motor neurons", "type": "cell-based, human", "conditions": "10 μM for 24 hours, FIG. 12 B", "protocol": "as §4"}, "mutant VCP (mVCP) mice [5]": {"test_system": "mutant VCP (mVCP) mice", "assay": "In vivo physiology of EDL muscle: motor unit counts and maximal tetanic force", "parameters": "species or system mouse", "conditions": "4 to 14 months, FIG. 1", "protocol": "as §1\nIn vivo physiology was carried out acutely at 14 months of age on terminally anaesthetized mice to quantify the number of motor units in the extensor digitorum longus (EDL) muscle in the hindlimb of mice in all experimental groups. Briefly, Isometric contractions were elicited by stimulating the Extensor Digitorum Longus (EDL) motor nerve using pulses of 0.02 ms duration and supramaximal intensity via electrodes. Contractions were elicited by stimulation of the sciatic nerve. The number of motor units in the EDL muscles was determined by stimulating the motor nerve with stimuli of increasing intensity, resulting in stepwise increments in twitch tension because of successive recruitment of motor axons."}, "HSP70 [6]": {"test_system": "HSP70", "assay": "HSP70 immunostaining of brain and spinal cord of mVCP mice", "type": "in vivo, mouse", "protocol": "as §1, §2, §3"}, "mutant VCP (mVCP) mice [7]": {"test_system": "mutant VCP (mVCP) mice", "conditions": "cited from earlier work"}, "mutant VCP (mVCP) mice [8]": {"test_system": "mutant VCP (mVCP) mice", "assay": "Motor neuron counts and area measurements, sciatic pool of spinal cord", "type": "in vivo, mouse", "conditions": "120 mg/kg daily orally, 4 to 14 months, FIG. 2", "protocol": "as §1\n20 μm spinal cord sections from L3-L6 were stained with gallocyanin to visualise neurons for quantification (5 mice per group). […] 20 images of the sciatic pool regions of the spinal cord were taken per animal to measure the size distribution of motor neurons present in this area (at ×20 magnification). A minimum of 3 mice per experimental group were assessed. The soma area of motor neurons was determined by drawing around individual Nissl stained (gallocyanin) motor neuron cell bodies in cross-sectional images of L4-L5 region of the spinal cord. This was recorded using Leica Application Suite V3.8 analysis software and presented as a percentage of the total number of motor neurons per group."}, "mutant VCP (mVCP) mice [9]": {"test_system": "mutant VCP (mVCP) mice", "assay": "TUNEL assay for apoptotic cells in brain", "type": "in vivo, mouse", "conditions": "120 mg/kg daily orally, 4 to 14 months, FIG. 9", "protocol": "as §1\nApoptosis in the brain was assessed by Terminal deoxynucleotidyl transferase (TdT) dUTP Nick-End Labeling (TUNEL) assay for apoptotic cells, where nuclei containing double-stranded breaks in the DNA fluoresce green (Fluoroscein-tagged), indicating DNA degradation at the later stage of apoptosis (FIG. 9). In some mVCP mice, TUNEL-positive nuclei in small areas of layer I in the cortex were detected which were not seen in control animals, indicating brain cells undergoing apoptosis."}, "[10]": {"conditions": "mVCP mice treated with Arimoclomol, previously published study"}}, "data": [{"smiles": "[O-][n+]1cccc(/C(Cl)=N/OC[C@H](O)CN2CCCCC2)c1", "note": "[Arimoclomol, N-[2-hydroxy-3-(1-piperidinyl)-propoxy]-pyridine-1-oxide-3-carboximidoyl chloride]", "values": [{"measurement": "accumulation of p62 in spinal cord", "setting": "mutant VCP (mVCP) mice [1]; FIG. 5", "value": "significantly ameliorated"}, {"measurement": "myelin abnormalities in spinal cord", "setting": "mutant VCP (mVCP) mice [1]; FIG. 5", "value": "significantly ameliorated"}, {"measurement": "increased LC3 expression in spinal cord", "setting": "mutant VCP (mVCP) mice [1]; FIG. 5 D", "value": "significantly ameliorated"}, {"measurement": "phosphorylated tau-positive (p-tau) extracellular aggregates/lesions in brain", "setting": "mutant VCP (mVCP) mice [1]; FIG. 6", "value": "prevents the formation of these proteinaceous aggregates"}, {"measurement": "TDP-43 cytoplasmic mislocalisation in brain and spinal cord", "setting": "mutant VCP (mVCP) mice [1]; FIGS. 3 and 4", "value": "TDP-43 mislocalisation was reduced"}, {"measurement": "ubiquitin-positive intracellular aggregates in brain and spinal cord", "setting": "mutant VCP (mVCP) mice [1]; FIGS. 5 and 6", "value": "prevents the formation of these proteinaceous aggregates"}, {"measurement": "cytoplasmic mislocalisation of TDP-43", "setting": "[2]", "value": "ameliorated"}, {"measurement": "expression of HSP70 in muscle (Western blot)", "setting": "HSP70 [3]", "value": "two-fold"}, {"measurement": "HSP70 expression", "setting": "HSP70 [4]", "value": "substantially increased"}, {"measurement": "number of motor units in EDL muscle (motor unit survival)", "setting": "mutant VCP (mVCP) mice [5]; 120 mg/kg daily orally in drinking water", "value": "reduction in motor unit survival is prevented"}, {"measurement": "muscle force generated by the EDL muscle", "setting": "mutant VCP (mVCP) mice [5]; 120 mg/kg daily orally, versus untreated mice", "value": "significantly greater than in untreated mice"}, {"measurement": "fluorescence intensity of HSP70 immunoreactivity in spinal cord (quantification)", "setting": "HSP70 [6]; mVCP mice treated versus untreated, FIG. 8 B", "value": "enhanced"}, {"measurement": "HSP70 expression in glial cells of spinal cord and brain", "setting": "HSP70 [6]; mVCP mice, 120 mg/kg daily orally, 4 to 14 months", "value": "increased expression of HSP70"}, {"measurement": "HSP70 expression in brain and spinal cord", "setting": "HSP70 [6]; mVCP mice, 120 mg/kg daily orally, 4 to 14 months, versus untreated mVCP, FIGS. 7 and 8", "value": "further augmented"}, {"measurement": "maximal tetanic force of EDL muscle", "setting": "mutant VCP (mVCP) mice [7]; 14 month old mVCP mice, versus wt-VCP controls, previously published study", "value": "prevented this reduction in muscle force"}, {"measurement": "myofibre atrophy and degeneration", "setting": "mutant VCP (mVCP) mice [7]; [10]", "value": "reduced myofibre atrophy and degeneration"}, {"measurement": "protein aggregation and TDP-43 mislocalisation in skeletal muscle", "setting": "mutant VCP (mVCP) mice [7]; [10]", "value": "decreased protein aggregation and TDP-43 mislocalisation"}, {"measurement": "decline in grip strength relative to body weight", "setting": "mutant VCP (mVCP) mice [7]; mVCP mice, 4 to 14 months of age, untreated mVCP 44.1% reduction", "value": "no significant decline in grip strength"}, {"measurement": "motor neuron survival in sciatic pool (L3-6) of spinal cord", "setting": "mutant VCP (mVCP) mice [8]", "value": "reduction in motor neuron survival is prevented"}, {"measurement": "shift towards smaller motor neuron soma size", "setting": "mutant VCP (mVCP) mice [8]", "value": "This shift is not seen"}, {"measurement": "TUNEL-positive apoptotic cells in brain cortex", "setting": "mutant VCP (mVCP) mice [9]", "value": "prevented the appearance of apoptotic cells"}]}]}
